Test results: US20240226228A1, “ANTIMICROBIAL PEPTOID HAVING IMPROVED SELECTIVITY AND ANTIMICROBIAL COMPOSITION COMPRISING SAME” (priority 2021, published 2024)
In brackets after ≈: the same amount, converted by molar mass. Read-outs that look alike come from different tables or passages of the source. Where a SMILES comes first, the peptide text is derived from it. [ ]: non-standard residue; d: D form. Gly(N(CH2)2(3-indolyl)) = O=C(O)CNCCc1c[nH]c2ccccc12; Nspe = C[C@H](NCC(=O)O)c1ccccc1; Nlys = NCCCCNCC(=O)O

Key:
[1] = system: Enterobacter SP KCTC 2625; experiment: MIC in multidrug-resistant bacteria, modified microdilution method; format: cell-based; conditions: Table 14
Experimental: (§1) The MIC of the prepared peptoid in multidrug-resistant bacteria was measured using a modified microdilution method in a Difco Mueller Hinton medium, and a test was performed on a bacterial pathogen panel with resistant and tolerance to general antibiotics.
(§2) Briefly, a medium containing bovine serum albumin and 0.001% acetic acid was used to continuously dilute a peptoid concentrate 10-times stronger than the final concentration. 10 uμL of the 10-time stronger peptoid concentrate and 90 μL of a Muleller Hinton medium were added to each well of a 96-well plate. Bacteria were added to the plate until the final concentration reached 2×10^5 CFU/mL and then incubated at […] overnight. MIC was defined as a concentration at which bacterial growth is not observed.

E. coli KCTC 2411 = experiment: as above; format: cell-based; conditions: Table 14
Experimental: as §1, §2

P. aeruginosa KCTC 1637 = experiment: as above; format: cell-based; conditions: Table 14
Experimental: as §1, §2

[2] = system: Enterococcus faecalis KCTC 3511; experiment: as above; format: cell-based; conditions: Table 14
Experimental: as §1, §2

[3] = system: Enterococcus Faecium KCTC 13225; experiment: as above; format: cell-based; conditions: Table 14
Experimental: as §1, §2

E. coli ATCC25922 = system: E. coli ATCC25922
Procedure, shortened: (§3)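 Cation-adjusted MHB2 cultures (18 h, subcultured 4 h) adjusted to 2×10^5–5×10^5 CFU/mL in medium with 0.02% BSA and 0.001% acetic acid.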

S. aureus ATCC 25923 = system: S. aureus ATCC 25923
Procedure, shortened: as §3

[4] = HPLC to confirm peptoid decomposition after counter ion substitution; format: physicochemical; conditions: HPLC at 220 nm; HCl and AcOH
Experimental: FIGS. 76 to 83 are the HPLC results for Peptoids 1, 10, 11, 14, 15, 29, 32 and 37 of the present inventive concept to confirm the decomposition of the peptoids after counter ion substitution using (a) HCl and (b) AcOH.
Referring to FIGS. […], HPLC was performed for Peptoids 1, 10, 11, 14, 15, 29, 32 and 37 of the present inventive concept. Since the chloride (HCl) is a stronger acid than TFA, it can decompose acid-vulnerable peptoid compounds.

red blood cells = experiment: Hemolysis assay; format: cell-based, Sprague-Dawley mouse
Procedure, shortened: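 Peptoid is mixed with 10% (v/v) PBS-washed erythrocytes (male Sprague-Dawley […], 13 weeks) and held 1 h at 37 °C. Hemolysis is calculated from 540 nm absorbance of the supernatant, with PBS as 0% and Triton X-100 as 100%.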

in vitro = experiment: in vitro
Experimental: (§4) Human lung cells (MRC-5) were purchased from the Korean Cell Line Bank, and human keratinocytes (HaCaT) were purchased from the AmorePacific R&D Center. All cells were grown in a Dulbecco's modified Eagle's medium containing 10% fetal bovine serum under conditions of 5% CO2 and 37° C. To confirm the effect of a peptoid on cell growth, 3-(4,5-dimethylthiazol-2-yl)-5-(3-carboxymethoxyphenyl)-2-(4-sulfophenyl)-2H-tetrazolium (MTS) cell assay was performed to determine cell viability. An aliquot (100 μL) of a batch including 1.3×10^4 MRC-5 cells/mL or 3×10^4 HaCaT cells/mL was dispensed into each well of a 96-well plate. The cells were grown at 37° C. in a 5% CO2 humid atmosphere and allowed to adhere for 24 hours. When the cells reached approximately 70% confluency, the medium was replaced with serial dilutions of the peptoid stock and incubated for 24 hours. 20 μL of a CellTiter 96 aqueous non-radioactive cell proliferation assay reagent (Promega, USA) including a tetrazolium compound was added to each well.
(§5) The contents in the plate were metabolized by incubating at 37° C. for 4 hours. An MTS-formazan product of viable cells was measured at 490 nm using a microplate reader, and cell viability (%) was calculated by Equation 2 below and compared with untreated cells.
(§6) Cell viability (%)=[A/(Acontrol)]×100 [Equation 2]
(§7) In Equation 2, A is the absorbance of a test well, and Acontrol is the average absorbance of a well containing untreated cells.
(§8) The term “nd” shown in Table 19 below is the abbreviation for not determined, and indicates a value that is too small or too large to be measured.

Human lung cells (MRC-5) = experiment: in vitro
Experimental: as §4, §5, §6, §7, §8

[5] = system: human keratinocytes (HaCaT); experiment: in vitro
Experimental: as §4, §5, §6, §7, §8

[6] = Table 18, TFA salt vs counter ion-substituted (HCl, AcOH) peptoids
[7] = Tables 11-13, 24 hours at 37° C., maximum concentration 25 μM
[8] = Table 18, TFA salt vs counter ion-substituted peptoids

Compound | MIC Enterobacter SP KCTC 2625 [1] | MIC E. coli KCTC 2411 (E. coli KCTC 2411) | MIC P. aeruginosa KCTC 1637 (P. aeruginosa KCTC 1637) | MIC Enterococcus faecalis KCTC 3511 [2] | MIC Enterococcus Faecium KCTC 13225 [3] | MIC E. coli ATCC25922 (E. coli ATCC25922; [6]) | MIC E. coli ATCC25922 (E. coli ATCC25922; [7]) | MIC S. aureus ATCC 25923 (S. aureus ATCC 25923; [6]) | MIC S. aureus ATCC 25923 (S. aureus ATCC 25923; [7]) | peptoid decomposition after counter ion substitution (in words) [4] | CC50 at 24 h (in vitro; human, LC50 HaCaT) | lower toxicity against MRC-5 cells compared to the peptoid having a TFA salt (Human lung cells (MRC-5)) | lower toxicity against HaCaT cells compared to the peptoid having a TFA salt [5] | also measured
C[C@@H](c1ccccc1)N(CC(N)=O)C(=O)CN(C(=O)CN(CCCCN)C(=O)CN(C(=O)CN(C(=O)CN(CCCCN)C(=O)CN(C(=O)CN(C(=O)CN(CCCCN)C(=O)CN(C(=O)CN(C(=O)CNCCCCN)[C@@H](C)c1ccccc1)[C@@H](C)c1ccccc1)[C@@H](C)c1ccccc1)[C@@H](C)c1ccccc1)[C@@H](C)c1ccccc1)[C@@H](C)c1ccccc1)[C@@H](C)c1ccccc1 [Peptoid 1, H-NLys-Nspe-Nspe-NLys-Nspe-Nspe-NLys-Nspe-Nspe-NLys-Nspe-Nspe-NH2, reference compound] (H-[Nlys][Nspe][Nspe][Nlys][Nspe][Nspe][Nlys][Nspe][Nspe][Nlys][Nspe][Nspe]-NH2) | 6.3 µM (≈ 11.5 µg/mL) | 6.3 µM (≈ 11.5 µg/mL) | 25 µM (≈ 45.5 µg/mL) | 0.8 µM (≈ 1.46 µg/mL) | < 0.8 µM | 6.3 µM | 6.3 µM (≈ 11.5 µg/mL) | 1.6 µM | 1.6 µM (≈ 2.91 µg/mL) | almost no peptoid decomposition occurred |  |  |  | MIC E. coli ATCC25922 (E. coli ATCC25922; gram-negative bacteria, E. coli ATCC25922 strain): 3.1 µM (≈ 5.64 µg/mL); MIC S. aureus ATCC 25923 (S. aureus ATCC 25923; gram-positive bacteria, S. aureus ATCC25923 strain): 1.6 µM (≈ 2.91 µg/mL); HC10 (red blood cells; [8]): 15.9 µM; HC50 (red blood cells; [8]): 49.0 µM; Hmax (100 μM) (red blood cells; [8]): 72.1 ± 2.1%; HC10 (red blood cells; Tables 11-13, concentration that induces hemolysis in 10% red blood cells): 8.3 µM; HC50 (red blood cells; Tables 11-13, concentration that induces hemolysis in 50% red blood cells): 22.9 µM; Hmax (100 μM) (red blood cells; Tables 11-13, hemolysis rate at maximum peptoid concentration): 112.3 ± 0.7%; HD10 (red blood cells; first value of HD10/HD50 cell, hemolysis, in µM): 22.9; Hmax (100 μM) (red blood cells; hemolysis at 100 μM): 75.8; HD50 (red blood cells; second value of HD10/HD50 cell, hemolysis, in µM): 79.0; CC50 at 24 h (in vitro): 7.3 µM; CC50 at 24 h (in vitro; LC50 MRC-5, 24 hours incubation, concentration that causes 50% cell lethality): 8.1 µM
C[C@@H](c1ccccc1)N(CC(=O)N(CCCCN)CC(=O)N(CCc1c[nH]c2ccccc12)CC(=O)N(CCc1c[nH]c2ccccc12)CC(N)=O)C(=O)CN(CCCCN)C(=O)CN(CCCCN)C(=O)CN(C(=O)CN(C(=O)CN(CCCCN)C(=O)CN(C(=O)CN(C(=O)CNCCCCN)[C@@H](C)c1ccccc1)[C@@H](C)c1ccccc1)[C@@H](C)c1ccccc1)[C@@H](C)c1ccccc1 [Peptoid 29, H-NLys-Nspe-Nspe-NLys-Nspe-Nspe-NLys-NLys-Nspe-NLys-NhTrp-NhTrp-NH2] (H-[Nlys][Nspe][Nspe][Nlys][Nspe][Nspe][Nlys][Nlys][Nspe][Nlys][Gly(N(CH2)2(3-indolyl))][Gly(N(CH2)2(3-indolyl))]-NH2) | 3.1 µM (≈ 5.78 µg/mL) | 6.3 µM (≈ 11.7 µg/mL) | 50 µM (≈ 93.2 µg/mL) | 3.1 µM (≈ 5.78 µg/mL) | 1.6 µM (≈ 2.98 µg/mL) | 6.3 µM | 6.3 µM (≈ 11.7 µg/mL) | 12.5 µM | 6.3 µM (≈ 11.7 µg/mL) | almost no peptoid decomposition occurred | 18.8 µM | 20% | 20% | 
C[C@@H](c1ccccc1)N(CC(N)=O)C(=O)CN(CCCCN)C(=O)CN(CCCCN)C(=O)CN(C(=O)CN(C(=O)CN(CCCCN)C(=O)CN(C(=O)CN(C(=O)CN(CCCCN)C(=O)CN(CCc1c[nH]c2ccccc12)C(=O)CN(CCc1c[nH]c2ccccc12)C(=O)CNCCCCN)[C@@H](C)c1ccccc1)[C@@H](C)c1ccccc1)[C@@H](C)c1ccccc1)[C@@H](C)c1ccccc1 [Peptoid 32, H-NLys-NhTrp-NhTrp-NLys-Nspe-Nspe-NLys-Nspe-Nspe-NLys-NLys-Nspe-NH2] | 3.1 µM (≈ 5.78 µg/mL) | 6.3 µM (≈ 11.7 µg/mL) | 25 µM (≈ 46.6 µg/mL) | 6.3 µM (≈ 11.7 µg/mL) | 3.1 µM (≈ 5.78 µg/mL) | 6.3 µM | 6.3 µM (≈ 11.7 µg/mL) |  | 3.1 µM (≈ 5.78 µg/mL) | almost no peptoid decomposition occurred | 17.1 µM | 20% | 20% | MIC S. aureus ATCC 25923 (S. aureus ATCC 25923; ATCC 25923): 3.1 µM (≈ 5.78 µg/mL); CC50 at 24 h (in vitro; human, LC50 MRC-5): 14.5 µM
